Reference: ChEMBL document CHEMBL1127101, “Interaction of rigid polyamine analogues with the NMDA receptor complex from rat brain” (Bioorg Med Chem Lett, 1993)

Key:
[1] = target: Glutamate NMDA receptor; assay: Tested for the binding of [3H]dizocilpine to DEPC (diethylpyrocarbonate) membranes of rat
[2] = target: Glutamate NMDA receptor; assay: Tested for the binding of [3H]dizocilpine to NMDA receptor in rat brain membranes in the presence of 500 uM spermidine; format: cell membranes
[3] = Tested for the increase in [Ca2+] produced by 30 uM of the compound; format: functional

SMILES | IC50 [1] [µM] | IC50 [2] [µM] | Increase [3] [%]
Cc1cc2nc3cc(C)c(N)cc3[n+](-c3ccccc3)c2cc1N | 3.95 | 2.21 | 77.9
CC[n+]1c(-c2ccccc2)c2cc(N)ccc2c2ccc(N)cc21 [HOMIDIUM BROMIDE] | 3.13 | 7.34 | 84.7
Nc1ccc2nc3ccc(N)cc3[n+](-c3ccccc3)c2c1 [PHENOSAFRANINE] | 2.7 | 4.33 | 78.4
CC[N+](C)(CC)CCC[n+]1c(-c2ccccc2)c2cc(N)ccc2c2ccc(N)cc21 [PROPIDIUM] | 6.8 | > 1000 | 97.6
